Tests used:
[1] = Solubility of isoflavones in distilled water at 37° C., HPLC after filtration; type: physicochemical; conditions: 0.02% in distilled water, 17 hours, 0.2 micron filter
Protocol: Separate solutions (0.02% in distilled water) were made for genistein, genistin, daidzein, daidzin and isoflavone concentrate in volumetric flasks. Samples were then placed in a 37° C. water bath for 17 hours, followed by rapid filtration through a 0.2 micron syringe-type filter to remove particulates. Filtered samples were then analyzed for isoflavone concentration by HPLC.

[2] = tested on: LNCaP cells; assay: In vitro secretion of PSA by LNCaP cells into media; type: cell-based
Protocol: PSA concentrations were reduced 68% and 74% by 25 and 50 μM of genistein treatment respectively, and 31% and 42% by 25 and 50 μM of soy phytochemical concentrate treatment respectively.

Question: With `O=c1c(-c2ccc(O)cc2)coc2cc(O[C@@H]3O[C@H](CO)[C@@H](O)[C@H](O)[C@H]3O)ccc12` [daidzin] as the molecule, how does the “Daidzin concentration in solution (solubility)” value [1] read?
Answer: 48.51 ppm

Question: For `O=c1c(-c2ccc(O)cc2)coc2cc(O)cc(O)c12` [genistein], which PSA concentration reduced ([2]; 25 μM) is on record?
Answer: 68%

Question: And the PSA concentration reduced ([2]; 50 μM)?
Answer: 74%

Question: What about the “Genistein concentration in solution (solubility)” value [1] of the same molecule?
Answer: 7.42 ppm
